Laboratory results from article PMC7239840, “A traffic light enzyme: acetate binding reversibly switches chlorite dismutase from a red- to a green-colored heme protein” (Journal of Biological Inorganic Chemistry, 2020).
Each block holds one compound with its values, some of them ahead of it.

How the values were obtained:
[1] = target: T1, chlorite dismutase (AoCld) (Azospira oryzae, UniProt E2DI02); experiment: UV-visible equilibrium binding titration (Soret band), pH […]; EPR low-spin adduct; set-up: recombinant, N-terminal His6 tag
T1 sequence (E2DI02 35-282): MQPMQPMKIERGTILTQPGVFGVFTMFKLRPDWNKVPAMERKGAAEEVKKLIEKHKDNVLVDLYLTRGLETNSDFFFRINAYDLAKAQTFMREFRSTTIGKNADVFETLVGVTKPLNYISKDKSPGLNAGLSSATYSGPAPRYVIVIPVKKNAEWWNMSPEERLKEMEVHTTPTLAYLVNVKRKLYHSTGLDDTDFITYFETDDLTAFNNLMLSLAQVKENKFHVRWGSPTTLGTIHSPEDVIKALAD

[2] = target: T2, chlorite dismutase (AoCld) R183A (Azospira oryzae, UniProt E2DI02, R217A); experiment: ligand binding to the R183A mutant (Fig. S7)
T2 construct: recombinant, N-terminal His6 tag
T2 sequence (E2DI02 35-282, stated change not applied): as the sequence (E2DI02 35-282) above

[3] = target: T1, chlorite dismutase (AoCld); experiment: biochemical
[4] = target: T1, chlorite dismutase (AoCld); experiment: UV-visible equilibrium binding titration (Soret band), pH […]; EPR with […] hyperfine splitting; set-up: recombinant, N-terminal His6 tag

SMILES: c1c[nH]cn1 [Im, imidazole]
Kd [1]: 0.0105 ± 0.0024 mM
ligand binding to the R183A mutant (Fig. S7) [2]: Mutagenesis of Arg183 to Ala results in the complete loss of affinity for fluoride and acetate, but not for imidazole

Kd [3]: 17.5 ± 0.5 mM
SMILES: CC(=O)O [Ac, acetate]

SMILES: F [F^−, fluoride]
Kd [4]: 15.6 ± 1.9 mM
